The source of these data is patent US11351178B2, “Selective HDAC6 inhibitors” (ITALFARMACO S.P.A., priority 2017, dated 2022).

SMILES strings stand for the structures. Where two headings read alike, the source gives them in different places.

The target in one series is T1, recombinant human HDAC6 (Homo sapiens, UniProt Q9UBN7).
T1 sequence (Q9UBN7 1-1215): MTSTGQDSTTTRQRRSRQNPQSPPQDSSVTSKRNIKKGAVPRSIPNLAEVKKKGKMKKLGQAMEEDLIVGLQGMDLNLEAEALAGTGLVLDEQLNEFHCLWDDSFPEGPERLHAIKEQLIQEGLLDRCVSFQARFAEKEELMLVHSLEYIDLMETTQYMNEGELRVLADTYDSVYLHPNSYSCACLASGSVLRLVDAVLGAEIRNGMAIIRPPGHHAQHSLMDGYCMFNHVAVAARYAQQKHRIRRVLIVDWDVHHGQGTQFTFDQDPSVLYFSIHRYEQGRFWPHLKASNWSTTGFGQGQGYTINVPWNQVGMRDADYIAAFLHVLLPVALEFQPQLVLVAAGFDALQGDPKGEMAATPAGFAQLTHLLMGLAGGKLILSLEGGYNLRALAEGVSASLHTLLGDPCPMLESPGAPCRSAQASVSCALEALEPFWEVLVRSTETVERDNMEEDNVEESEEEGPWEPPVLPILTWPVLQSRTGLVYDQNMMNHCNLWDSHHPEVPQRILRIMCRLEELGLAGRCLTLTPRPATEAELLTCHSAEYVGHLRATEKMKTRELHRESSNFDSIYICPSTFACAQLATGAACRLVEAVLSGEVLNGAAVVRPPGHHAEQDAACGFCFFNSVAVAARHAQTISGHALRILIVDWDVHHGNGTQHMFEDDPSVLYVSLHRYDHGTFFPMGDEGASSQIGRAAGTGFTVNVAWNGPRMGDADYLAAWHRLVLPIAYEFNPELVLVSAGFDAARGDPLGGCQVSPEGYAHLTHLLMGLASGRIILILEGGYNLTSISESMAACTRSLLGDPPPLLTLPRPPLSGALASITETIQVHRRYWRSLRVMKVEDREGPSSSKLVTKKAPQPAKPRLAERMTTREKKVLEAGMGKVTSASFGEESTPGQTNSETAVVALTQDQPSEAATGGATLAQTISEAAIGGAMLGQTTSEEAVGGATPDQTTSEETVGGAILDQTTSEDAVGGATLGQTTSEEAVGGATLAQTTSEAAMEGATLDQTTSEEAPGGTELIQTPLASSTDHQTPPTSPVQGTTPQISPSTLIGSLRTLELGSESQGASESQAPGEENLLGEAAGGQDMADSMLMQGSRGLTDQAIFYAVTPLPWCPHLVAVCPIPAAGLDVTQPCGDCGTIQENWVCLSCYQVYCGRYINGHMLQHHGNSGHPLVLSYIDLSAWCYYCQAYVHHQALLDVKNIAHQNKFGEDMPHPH
As to the kind of experiment: Enzymatic screening on recombinant human HDAC6. The series is classed as biochemical. Particulars: read-out: HDAC6 IC50. The procedure, abridged:
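Recombinant human enzyme was incubated with compound at 30 °C for an isoform-dependent time, then substrate (FLUOR DE LYS, FLUOR DE LYS-Green or trifluoroacetyl-L-lysine) was added as a 2× solution in 25 mM Tris-HCl pH 8, 130 mM NaCl, 0.05% Tween-20, 10% glycerol. The deacetylation reaction then proceeded at 30 °C.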

The target in another series is T2, HDAC1 (Homo sapiens, UniProt Q13547).
T2 construct: purchased BPS 50051
As to the kind of experiment: Enzymatic test HDAC1. The series is classed as biochemical. Particulars: Table 3.

For the next series, the target named is T3, HDAC2 (Homo sapiens, UniProt Q92769).
T3 construct: purchased BPS 50002
As to the kind of experiment: Enzymatic test HDAC2. The series is classed as biochemical. Particulars: Table 3.

The target in a further series is T4, HDAC5 (Homo sapiens, UniProt Q9UQL6).
T4 construct: purchased BPS 50005
As to the kind of experiment: Enzymatic test HDAC5. Particulars: Table 3. The series is classed as biochemical. As to the method:
(§1) After a period of incubation at 30° C. (incubation times vary for different isoforms and are shown in table 1) 25 μL of solution containing the substrate were added. As substrate, FLUOR DE LYS® deacetylase substrate (Enzo Life Sciences, cat #BML-K1104, FdL), FLUOR DE LYS®-Green substrate (Enzo Life Sciences, cat #BML-K1572 FdL_G) and trifluoroacetyl-L-lysine (Tfal)-2× concentrated solution in 25 mM Tris-HCl, pH 8, 130 mM NaCl 0.05% Tween-20 10% glycerol) were used. Following a reaction period at 30° C.

A further series concerns the target T5, HDAC7 (Homo sapiens, UniProt Q8WUI4).
T5 construct: purchased BPS 50007
T5 sequence (Q8WUI4 518-952 limits assumed): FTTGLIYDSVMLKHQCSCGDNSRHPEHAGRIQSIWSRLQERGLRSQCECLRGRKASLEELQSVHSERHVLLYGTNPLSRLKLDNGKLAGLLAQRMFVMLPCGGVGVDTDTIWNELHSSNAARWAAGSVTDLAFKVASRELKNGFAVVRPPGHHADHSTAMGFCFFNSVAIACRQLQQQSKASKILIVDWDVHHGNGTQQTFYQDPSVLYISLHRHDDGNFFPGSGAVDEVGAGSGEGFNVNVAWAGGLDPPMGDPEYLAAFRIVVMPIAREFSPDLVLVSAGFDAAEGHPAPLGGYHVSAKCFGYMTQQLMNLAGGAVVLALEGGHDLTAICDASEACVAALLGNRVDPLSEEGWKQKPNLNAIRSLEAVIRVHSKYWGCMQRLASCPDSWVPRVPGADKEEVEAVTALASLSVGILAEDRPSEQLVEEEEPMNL
As to the kind of experiment: Enzymatic test HDAC7. The series is classed as biochemical. Conditions: Table 3. The procedure: as §1

A short description of series [1]: Stability to Phase I metabolism in rat S9 liver fraction. The series is classed as in vitro ADME. Particulars: after 90 min, 37° C. A digest of the protocol:
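Phase I stability in human and rat hepatic S9 at 37 °C, sampled up to 90 min. Samples were stopped with acidified acetonitrile on ice, then quantified by HPLC-UV or LC-MS/MS.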

A further series in a line: Stability in rat plasma. The series is classed as in vitro ADME. Particulars: after 4 hours, 37° C. The procedure, abridged:
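Compounds incubated at 37° C in rat or human plasma at 50 μM (UV/HPLC) or 1 or 2 μM (LC-MS/MS) for 0–4 h. Reaction stopped with acidified acetonitrile on ice; percent remaining versus initial amount and plasma half-life calculated.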

T4 sequence (Q9UQL6 656-1122 limits assumed): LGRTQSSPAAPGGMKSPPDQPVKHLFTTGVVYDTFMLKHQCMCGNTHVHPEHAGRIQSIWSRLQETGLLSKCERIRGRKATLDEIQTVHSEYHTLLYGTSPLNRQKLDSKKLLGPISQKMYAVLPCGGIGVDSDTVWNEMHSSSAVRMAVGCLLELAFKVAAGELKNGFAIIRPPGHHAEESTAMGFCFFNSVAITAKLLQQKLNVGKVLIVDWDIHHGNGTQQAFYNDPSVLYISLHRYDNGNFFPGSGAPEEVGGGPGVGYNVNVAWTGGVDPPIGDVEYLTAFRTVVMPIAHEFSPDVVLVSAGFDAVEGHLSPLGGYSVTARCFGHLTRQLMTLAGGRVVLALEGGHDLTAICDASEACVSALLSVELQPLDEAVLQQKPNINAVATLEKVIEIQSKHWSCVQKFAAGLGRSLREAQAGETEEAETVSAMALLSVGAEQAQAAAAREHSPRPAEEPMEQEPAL
T2 sequence (Q13547 whole entry): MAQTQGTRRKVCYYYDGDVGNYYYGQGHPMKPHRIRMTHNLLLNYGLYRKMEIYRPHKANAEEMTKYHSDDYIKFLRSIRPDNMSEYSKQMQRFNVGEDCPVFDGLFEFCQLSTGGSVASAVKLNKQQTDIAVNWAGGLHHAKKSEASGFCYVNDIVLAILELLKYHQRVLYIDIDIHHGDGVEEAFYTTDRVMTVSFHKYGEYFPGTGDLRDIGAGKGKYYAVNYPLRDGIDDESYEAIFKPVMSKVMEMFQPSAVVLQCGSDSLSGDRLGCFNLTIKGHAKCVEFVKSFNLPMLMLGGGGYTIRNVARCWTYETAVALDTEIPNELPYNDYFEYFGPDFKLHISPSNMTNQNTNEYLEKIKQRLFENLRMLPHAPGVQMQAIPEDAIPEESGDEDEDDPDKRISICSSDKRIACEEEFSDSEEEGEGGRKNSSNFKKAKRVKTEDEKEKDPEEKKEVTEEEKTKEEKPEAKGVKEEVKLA
T3 sequence (Q92769 whole entry): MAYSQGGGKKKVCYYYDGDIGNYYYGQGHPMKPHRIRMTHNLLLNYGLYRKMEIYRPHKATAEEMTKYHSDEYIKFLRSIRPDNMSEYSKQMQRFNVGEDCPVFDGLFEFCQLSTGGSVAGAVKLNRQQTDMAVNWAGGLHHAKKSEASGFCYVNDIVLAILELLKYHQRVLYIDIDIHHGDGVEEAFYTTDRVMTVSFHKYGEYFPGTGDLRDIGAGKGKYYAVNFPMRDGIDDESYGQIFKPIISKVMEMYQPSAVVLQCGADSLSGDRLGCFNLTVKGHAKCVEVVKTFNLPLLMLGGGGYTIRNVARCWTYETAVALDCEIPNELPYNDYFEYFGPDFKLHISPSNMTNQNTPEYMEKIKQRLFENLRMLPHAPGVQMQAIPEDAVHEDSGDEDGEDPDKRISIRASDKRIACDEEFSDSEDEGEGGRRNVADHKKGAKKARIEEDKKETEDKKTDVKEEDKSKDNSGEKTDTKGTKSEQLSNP

Regarding `O=C(NO)c1ccc(Cn2nnc(-c3ccccc3F)n2)cc1` [comp. 33, 4-[[5-(2-fluorophenyl)tetrazol-2-yl]methyl]benzenecarbohydroxamic acid], the IC50 came out at 3 nM on recombinant human HDAC6 (Table 2); 3 nM on recombinant human HDAC6 (Table 3); 232 nM against HDAC1; 0.81 µM on HDAC2; 2360 nM against HDAC5; 608 nM on HDAC7. Besides, the “residual percentage in rat S9 fraction” value in series [1] turned out to be 2%. In addition, in the series “Stability in rat plasma”, the “residual percentage in rat plasma” value is recorded as 52%.

Take `CN(C)S(=O)(=O)c1cccc(-c2nnn(Cc3ccc(C(=O)NO)cc3)n2)c1` [comp. 59, 4-[[5-[3-(dimethylsulfamoyl)phenyl]tetrazol-2-yl]methyl]benzenecarbohydroxamic acid]: the IC50 was 7 nM on recombinant human HDAC6 (Table 2); 7 nM at recombinant human HDAC6 (Table 3); 353 nM on HDAC1; 2.32 µM on HDAC2; 4120 nM on HDAC5; 820 nM at HDAC7. Further, the “residual percentage in rat S9 fraction” value in series [1] came out at 8%. The “residual percentage in rat plasma” value in the series “Stability in rat plasma” is listed as 53%.

For the compound `Cn1c(Sc2c(F)cc(C(=O)NO)cc2F)nnc1-c1cccs1` [comp. 17, 3,5-difluoro-N-hydroxy-4-((4-methyl-5-(thiophen-2-yl)-4H-1,2,4-triazol-3-yl)thio)benzamide], the IC50 on recombinant human HDAC6 (Table 2) was determined as 9 nM; at recombinant human HDAC6 (Table 3), 9 nM; at HDAC1, 3990 nM; on HDAC2, 16 µM; against HDAC5 it was 1540 nM; at HDAC7 it was 550 nM. Besides, the “residual percentage in rat S9 fraction” value in series [1] was 71%. The “residual percentage in rat plasma” value in “Stability in rat plasma” worked out at 87%.

Take `Cn1c(Sc2ccc(C(=O)NO)cc2)nnc1-c1cccs1` [comp. 10, N-hydroxy-4-((4-methyl-5-(thiophen-2-yl)-4H-1,2,4-triazol-3-yl)thio)benzamide]: the IC50 turned out to be 8 nM on recombinant human HDAC6 (Table 2); 9 nM on recombinant human HDAC6 (Table 3); 1020 nM against HDAC1; 4.45 µM against HDAC2; 2680 nM against HDAC5; 817 nM against HDAC7. Besides, the “residual percentage in rat S9 fraction” value in series [1] turned out to be 82%. Moreover, in “Stability in rat plasma”, the “residual percentage in rat plasma” value was 86%.

In the case of `Cn1c(Sc2c(F)cc(C(=O)NO)cc2F)nnc1C(c1ccccc1)c1ccccc1` [comp. 98, 4-[(5-benzhydryl-4-methyl-1,2,4-triazol-3-yl)sulfanyl]-3,5-difluoro-benzenecarbohydroxamic acid], the IC50 on recombinant human HDAC6 (Table 2) was 61 nM; on recombinant human HDAC6 (Table 3), 61 nM; on HDAC1, 1010 nM; against HDAC2, 4.24 µM; on HDAC5, 2660 nM; against HDAC7 it was 1990 nM. For the same compound, in series [1], the “residual percentage in rat S9 fraction” value was found to be 88%. Also, in “Stability in rat plasma”, the “residual percentage in rat plasma” value was found to be 89%.

With `O=C(NO)c1cc(F)c(Cn2nnc(-c3ccco3)n2)c(F)c1` [comp. 19, 3,5-difluoro-4-((5-(furan-2-yl)-2H-tetrazol-2-yl)methyl)-N-hydroxybenzamide], the IC50 turned out to be 4 nM at recombinant human HDAC6 (Table 2); 4 nM on recombinant human HDAC6 (Table 3); 2520 nM against HDAC1; 9.48 µM on HDAC2; 597 nM at HDAC5; 1020 nM against HDAC7. Also, the “residual percentage in rat S9 fraction” value in series [1] was determined as 68%. Besides, the “residual percentage in rat plasma” value in the series “Stability in rat plasma” came out at 96%.

Take `O=C(NO)c1ccc(Cc2nnc(-c3ccc(F)cc3F)o2)cc1` [comp. 58, 4-((5-(2,4-difluorophenyl)-1,3,4-oxadiazol-2-yl)methyl)-N-hydroxybenzamide]: the IC50 turned out to be 6 nM at recombinant human HDAC6 (Table 2); 6 nM at recombinant human HDAC6 (Table 3); 364 nM against HDAC1; 1.75 µM against HDAC2; 3690 nM on HDAC5; 1510 nM against HDAC7. Also, in series [1], the “residual percentage in rat S9 fraction” value amounted to 15%. In the series “Stability in rat plasma”, the “residual percentage in rat plasma” value is 106%.

Turning to `CN(C)c1cccc(-c2nnc(Sc3c(F)cc(C(=O)NO)cc3F)n2C)c1` [comp. 80, 4-[[5-[3-(dimethylamino)phenyl]-4-methyl-1,2,4-triazol-3-yl]sulfanyl]-3,5-difluoro-benzenecarbohydroxamic acid], the 50% inhibitory concentration (IC50) is 16 nM on recombinant human HDAC6 (Table 2); 16 nM on recombinant human HDAC6 (Table 3); 4640 nM against HDAC1; 13.8 µM at HDAC2; 1280 nM at HDAC5; 764 nM against HDAC7. In series [1], the “residual percentage in rat S9 fraction” value was determined as 32%. In addition, the “residual percentage in rat plasma” value in the series “Stability in rat plasma” is recorded as 77%.

As to `Cn1c(Sc2c(F)cc(C(=O)NO)cc2F)nnc1-c1cccc2ccccc12` [comp. 2, 3,5-difluoro-N-hydroxy-4-((4-methyl-5-(naphthalen-1-yl)-4H-1,2,4-triazol-3-yl)thio)benzamide], the 50% inhibitory concentration (IC50) at recombinant human HDAC6 (Table 2) was 16 nM; at recombinant human HDAC6 (Table 3), 16 nM; against HDAC1 it was 11600 nM; against HDAC2, over 30 µM; against HDAC5 it was 1850 nM; at HDAC7 it was 1090 nM. Moreover, the “residual percentage in rat S9 fraction” value in series [1] is recorded as 1%. Also, the “residual percentage in rat plasma” value in the series “Stability in rat plasma” was 79%.

In the case of `Nn1c(Sc2ccc(C(=O)NO)cc2)nnc1-c1ccc(OC(F)F)cc1` [comp. 28, 4-[[4-amino-5-[4-(difluoromethoxy)phenyl]-1,2,4-triazol-3-yl]sulfanyl]benzenecarbohydroxamic acid], the IC50 was 10 nM at recombinant human HDAC6 (Table 2); 10 nM at recombinant human HDAC6 (Table 3); 426 nM against HDAC1; 1.57 µM against HDAC2; 1170 nM against HDAC5; 1030 nM at HDAC7. For the same compound, in series [1], the “residual percentage in rat S9 fraction” value is recorded as 68%. Besides, in “Stability in rat plasma”, the “residual percentage in rat plasma” value is 90%.

Take `O=C(NO)c1cc(F)c(Cn2nnc(-c3ccccn3)n2)c(F)c1` [comp. 6, 3,5-difluoro-N-hydroxy-4-((5-(pyridin-2-yl)-2H-tetrazol-2-yl)methyl)benzamide]: the half-inhibitory concentration (IC50) on recombinant human HDAC6 (Table 2) stood at 7 nM; at recombinant human HDAC6 (Table 3), 7 nM; against HDAC1, 7510 nM; at HDAC2, 27.5 µM; against HDAC5, 1050 nM; at HDAC7, 750 nM. Moreover, the “residual percentage in rat S9 fraction” value in series [1] is recorded as 96.6%. Moreover, the “residual percentage in rat plasma” value in “Stability in rat plasma” was found to be 87%.

As a reminder, the IC50 is the point on the concentration scale where inhibition reaches its midpoint.
